Read-outs that look alike come from different tables or passages of the source. Where only a bound is given, the exact number is not on record here.

The values below come from patent publication US11339130B1 (Blade Therapeutics, Inc., priority 2016, dated 2022).

Experiment [1] relates to Calpain activity in SH-SY5Y cells. Description: SH-SY5Y + AMC fluorescence assay (Suc-LLVY-AMC substrate). The format is cell-based. Particulars: read-out: SH-SY5Y + AMC IC50.
The next experiment has as its target T1, Human Calpain 9/NS1 (Homo sapiens, UniProt O14815).
T1 sequence (O14815 1-690): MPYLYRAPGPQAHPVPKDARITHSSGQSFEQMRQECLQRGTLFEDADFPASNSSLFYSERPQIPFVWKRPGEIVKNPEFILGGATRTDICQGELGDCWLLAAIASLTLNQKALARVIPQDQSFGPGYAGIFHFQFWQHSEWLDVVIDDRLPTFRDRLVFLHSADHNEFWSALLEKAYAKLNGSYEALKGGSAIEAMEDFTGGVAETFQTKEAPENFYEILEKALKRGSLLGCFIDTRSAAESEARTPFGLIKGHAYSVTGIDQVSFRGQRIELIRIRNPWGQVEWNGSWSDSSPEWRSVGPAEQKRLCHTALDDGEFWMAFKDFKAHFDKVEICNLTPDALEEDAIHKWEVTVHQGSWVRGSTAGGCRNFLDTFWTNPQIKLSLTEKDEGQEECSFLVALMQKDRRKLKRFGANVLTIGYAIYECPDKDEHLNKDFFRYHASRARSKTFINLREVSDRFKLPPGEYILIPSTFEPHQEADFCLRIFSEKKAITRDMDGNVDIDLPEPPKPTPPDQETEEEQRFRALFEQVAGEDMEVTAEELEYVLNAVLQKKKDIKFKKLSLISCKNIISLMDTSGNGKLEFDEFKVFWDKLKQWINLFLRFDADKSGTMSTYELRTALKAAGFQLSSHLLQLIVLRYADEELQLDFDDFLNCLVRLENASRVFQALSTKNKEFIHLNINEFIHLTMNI
T1 sequence (P04632 1-268 partner): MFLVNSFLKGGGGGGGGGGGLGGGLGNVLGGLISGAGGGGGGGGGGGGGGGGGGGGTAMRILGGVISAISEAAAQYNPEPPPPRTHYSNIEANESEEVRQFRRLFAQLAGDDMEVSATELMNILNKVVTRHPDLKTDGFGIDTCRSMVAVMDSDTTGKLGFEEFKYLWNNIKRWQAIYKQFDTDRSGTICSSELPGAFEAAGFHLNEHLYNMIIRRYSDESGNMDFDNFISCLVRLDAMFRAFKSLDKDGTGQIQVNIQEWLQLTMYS
Kind of experiment: Calpain inhibition continuous fluorescence (FRET) assay, Human Calpain 9/NS1. The following applies: read-out: Human Calpain 9/NS1 IC50. Type of experiment: biochemical. An outline of the steps: (§1)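 Calpain activity is measured kinetically with a quenched FRET peptide in 50 mM Tris pH 7.5, 100 mM NaCl, 1 mM DTT, with CaCl2 triggering activation. Rates over 1-5 min are plotted against log inhibitor to obtain IC50 by 4-parameter logistic fitting.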

The next experiment has as its target T2, Human Calpain 2/NS1 (Homo sapiens, UniProt P17655).
T2 sequence (P17655 1-700): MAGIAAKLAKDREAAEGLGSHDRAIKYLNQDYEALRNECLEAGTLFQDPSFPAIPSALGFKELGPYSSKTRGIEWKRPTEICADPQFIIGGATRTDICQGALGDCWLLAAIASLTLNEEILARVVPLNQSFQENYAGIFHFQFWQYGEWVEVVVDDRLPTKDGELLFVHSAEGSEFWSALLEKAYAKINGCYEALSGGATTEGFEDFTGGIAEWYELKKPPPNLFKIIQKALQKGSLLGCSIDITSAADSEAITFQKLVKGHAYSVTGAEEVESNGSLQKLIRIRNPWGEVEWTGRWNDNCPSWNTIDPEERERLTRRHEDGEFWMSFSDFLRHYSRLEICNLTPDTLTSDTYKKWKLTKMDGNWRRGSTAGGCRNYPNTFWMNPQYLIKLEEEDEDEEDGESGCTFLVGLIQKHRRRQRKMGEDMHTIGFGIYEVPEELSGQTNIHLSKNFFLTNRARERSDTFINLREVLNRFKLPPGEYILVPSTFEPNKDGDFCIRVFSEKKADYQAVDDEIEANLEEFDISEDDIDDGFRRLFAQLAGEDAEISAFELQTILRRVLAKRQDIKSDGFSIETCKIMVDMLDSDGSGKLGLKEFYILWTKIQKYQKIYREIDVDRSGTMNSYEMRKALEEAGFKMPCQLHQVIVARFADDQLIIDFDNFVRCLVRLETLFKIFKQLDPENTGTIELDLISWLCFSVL
T2 sequence (P04632 1-268 partner): T1 sequence (P04632 1-268 partner)
Kind of experiment: Calpain inhibition continuous fluorescence (FRET) assay, Human Calpain 2/NS1. The following applies: read-out: Human Calpain 2/NS1 IC50. The format is biochemical. The method in brief: as §1

The target of a further experiment is T3, Human Calpain 1/NS1 (Homo sapiens, UniProt P07384).
T3 sequence (P07384 1-714): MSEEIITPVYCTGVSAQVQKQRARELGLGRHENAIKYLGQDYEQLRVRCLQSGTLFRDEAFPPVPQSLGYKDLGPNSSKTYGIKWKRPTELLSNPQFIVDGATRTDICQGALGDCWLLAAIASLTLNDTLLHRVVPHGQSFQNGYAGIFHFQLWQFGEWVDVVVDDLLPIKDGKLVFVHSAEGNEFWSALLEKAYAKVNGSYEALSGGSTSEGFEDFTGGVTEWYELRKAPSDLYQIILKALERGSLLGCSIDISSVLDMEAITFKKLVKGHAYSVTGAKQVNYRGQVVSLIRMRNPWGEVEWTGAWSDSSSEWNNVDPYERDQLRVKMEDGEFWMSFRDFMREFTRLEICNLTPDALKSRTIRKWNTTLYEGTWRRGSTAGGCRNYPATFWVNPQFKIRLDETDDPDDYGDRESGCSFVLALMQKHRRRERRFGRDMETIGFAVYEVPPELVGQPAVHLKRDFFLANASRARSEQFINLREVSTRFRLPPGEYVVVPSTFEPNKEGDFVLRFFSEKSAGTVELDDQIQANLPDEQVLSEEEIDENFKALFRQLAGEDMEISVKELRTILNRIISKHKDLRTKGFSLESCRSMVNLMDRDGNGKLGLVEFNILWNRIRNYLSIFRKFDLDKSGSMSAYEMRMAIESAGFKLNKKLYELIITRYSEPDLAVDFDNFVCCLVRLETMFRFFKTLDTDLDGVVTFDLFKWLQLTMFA
T3 sequence (P04632 1-268 partner): T1 sequence (P04632 1-268 partner)
Kind of experiment: Calpain inhibition continuous fluorescence (FRET) assay, Human Calpain 1/NS1. The following applies: read-out: Human Calpain 1/NS1 IC50. The format is biochemical. An outline of the steps:
as §1

The test system of experiment [2] is Calpain activity in SH-SY5Y cells (SBDP-150). Description: SH-SY5Y Spectrin western blot assay (SBDP-150 breakdown product, A23187-induced). The format is cell-based. Particulars: Homo sapiens, SH-SY5Y cells, read-out: SH-SY5Y Spectrin IC50. Background: In western blotting, separated proteins are transferred to a membrane and probed.
Where [3] appears, read: A23187-induced SBDP-150, western blot.
[4] abbreviates: Column D, A23187-induced SBDP-150.

For `COCCOCCOc1ccc(-n2nc(C)cc2C(=O)NC(Cc2ccccc2)C(=O)C(N)=O)cc1` (stereo not drawn) [Compound 443, N-(4-amino-3,4-dioxo-1-phenylbutan-2-yl)-1-(4-(2-(2-methoxyethoxy)ethoxy)phenyl)-3-methyl-1H-pyrazole-5-carboxamide], the IC50 in experiment [1] was 10 to 25 µM; on Human Calpain 9/NS1, less than 3 µM; at Human Calpain 2/NS1 it was less than 3 µM; on Human Calpain 1/NS1, less than 3 µM; in experiment [2] (setting [3]), less than 10 µM.
As for `NC(=O)C(=O)C(Cc1ccccc1)NC(=O)c1nsnc1-c1cnccn1` (stereo not drawn) [Compound 365, N-(4-amino-3,4-dioxo-1-phenylbutan-2-yl)-4-(pyrazin-2-yl)-1,2,5-thiadiazole-3-carboxamide], the IC50 in experiment [1] was less than 10 µM; at Human Calpain 9/NS1, less than 3 µM; on Human Calpain 2/NS1, less than 3 µM; at Human Calpain 1/NS1 it was less than 3 µM; in experiment [2] (setting [3]), less than 10 µM.
With `Cc1nc(-c2ccccc2)c(C(=O)N[C@@H](Cc2ccccc2)C(=O)CF)o1` [Compound 475, (S)—N-(4-fluoro-3-oxo-1-phenylbutan-2-yl)-2-methyl-4-phenyloxazole-5-carboxamide], the IC50 in experiment [1] was more than 25 µM; at Human Calpain 9/NS1, 3 to 10 µM; on Human Calpain 2/NS1, less than 3 µM; on Human Calpain 1/NS1, 3 to 10 µM; in experiment [2] (setting [3]), less than 10 µM.
In the case of `Cc1ccc(F)cc1-c1oncc1C(=O)NC(Cc1ccccc1)C(=O)C(N)=O` (stereo not drawn) [Compound 558, N-(4-amino-3,4-dioxo-1-phenylbutan-2-yl)-5-(5-fluoro-2-methylphenyl)isoxazole-4-carboxamide], the IC50 in experiment [1] is less than 10 µM; at Human Calpain 9/NS1, less than 3 µM; at Human Calpain 2/NS1 it was less than 3 µM; on Human Calpain 1/NS1 it was less than 3 µM; in experiment [2] (setting [3]) it was 10 to 25 µM.
Consider `CCOCc1ccc(-n2nc(C)cc2C(=O)N[C@@H](Cc2ccccc2)C(=O)C(N)=O)cc1` [Compound 227, (S)—N-(4-amino-3,4-dioxo-1-phenylbutan-2-yl)-1-(4-(ethoxymethyl)phenyl)-3-methyl-1H-pyrazole-5-carboxamide], for which the IC50 was more than 25 µM in experiment [1] (Column E); less than 3 µM on Human Calpain 9/NS1 (Column C); less than 3 µM at Human Calpain 2/NS1 (Column B); less than 3 µM at Human Calpain 1/NS1 (Column A); less than 10 µM in experiment [2] (setting [4]).
For `Cn1cc(C(=O)N[C@@H](Cc2ccccc2)C(=O)C(N)=O)c(-c2cnccn2)n1` [Compound 313, (S)—N-(4-amino-3,4-dioxo-1-phenylbutan-2-yl)-1-methyl-3-(pyrazin-2-yl)-1H-pyrazole-4-carboxamide], the IC50 in experiment [1] is more than 25 µM; on Human Calpain 9/NS1 it was less than 3 µM; on Human Calpain 2/NS1, less than 3 µM; on Human Calpain 1/NS1 it was less than 3 µM; in experiment [2] (setting [3]), more than 25 µM.
With `NC(=O)C(=O)[C@H](Cc1ccccc1)NC(=O)c1oc(C(F)(F)F)nc1-c1ccccc1` [Compound 255, (S)—N-(4-amino-3,4-dioxo-1-phenylbutan-2-yl)-4-phenyl-2-(trifluoromethyl)oxazole-5-carboxamide], the IC50 in experiment [1] (Column E) was less than 10 µM; at Human Calpain 9/NS1 (Column C), less than 3 µM; on Human Calpain 2/NS1 (Column B), less than 3 µM; at Human Calpain 1/NS1 (Column A), less than 3 µM; in experiment [2] (setting [4]) it was less than 10 µM.
Regarding `NC(=O)C(=O)[C@H](Cc1ccccc1)NC(=O)c1cn(-c2ccccc2)nc1-c1ccccc1` [Compound 309, (S)—N-(4-amino-3,4-dioxo-1-phenylbutan-2-yl)-1,3-diphenyl-1H-pyrazole-4-carboxamide], the IC50 was less than 10 µM in experiment [1]; less than 3 µM at Human Calpain 9/NS1; less than 3 µM at Human Calpain 2/NS1; less than 3 µM at Human Calpain 1/NS1; 10 to 25 µM in experiment [2] (setting [3]).
As for `Cc1nc(-c2ccccn2)c(C(=O)N[C@@H](Cc2ccccc2)C(=O)C(N)=O)o1` [Compound 266, (S)—N-(4-amino-3,4-dioxo-1-phenylbutan-2-yl)-2-methyl-4-(pyridin-2-yl)oxazole-5-carboxamide], the IC50 is more than 25 µM in experiment [1] (Column E); less than 3 µM at Human Calpain 9/NS1 (Column C); less than 3 µM on Human Calpain 2/NS1 (Column B); less than 3 µM on Human Calpain 1/NS1 (Column A); more than 25 µM in experiment [2] (setting [4]).
